Laboratory results published in patent US11530229B2, “Cyano cyclobutyl compounds for CBL-B inhibition and uses thereof” (Nurix Therapeutics, Inc., priority 2019, dated 2022).
Where two headings read alike, the source gives them in different places.

Tests used:
Cbl-b = Cbl-b (Homo sapiens (Human), UniProt Q13191); assay: Cbl-b displacement assay (Cbl-b inhibition assay), Biological Example 1; assay type: binding
Method: Candidate compounds were evaluated for their ability to bind and inhibit Cbl-b, an E3 ubiquitin-protein ligase, as evidenced by their ability to displace a fluorophore-labeled probe (Example 59) bound to Cbl-b.
The ability of candidate compounds to displace a known inhibitor and thereby inhibit Cbl-b activity was measured by monitoring the interaction of Cbl-b with a fluorophore-labeled probe in the presence of the candidate compound. A truncated variant of Cbl-b (UniProt number Q13191; SEQ ID NO:1) containing an Avitag at its N-terminus was co-expressed with BirA biotin ligase and purified using a standard protocol (see Dou et al., Nature Structural and Molecular Biology, 8: 982-987, 2013; Avidity LLC).
Cbl-b Amino Acid Residues 36-427:
Fluorescently-labeled inhibitor probe was synthesized and tagged with BODIPY FL (Example 59). Cbl-b displacement assays were performed in a 384-well plate at room temperature in a 10 μL reaction volume by pre-incubating 0.5 nM Cbl-b or 0.125 nM Cbl-b (final concentration, indicated as “High” and “Low”, respectively) in an assay buffer containing 20 mM HEPES pH 7.5, 150 mM NaCl, 0.01% Triton X-100, 0.01% BSA and 0.5 mM TCEP in the presence of a candidate compound in 1% DMSO (final concentration) for 1 hour. After incubation in the presence of the candidate compound, the plate was incubated for an additional 1 hour in the presence of an approximate EC40 binding saturation consisting of 150 nM fluorescently-labeled inhibitor probe and 2 nM Streptavidin-Terbium (Cisbio) (final concentrations). Following the 1 hour incubation, the plates were read for TR-FRET signal at […] using an Envision plate reader (Perkin Elmer).

[1] = tested on: primary human total T-cells; assay: T-cell activation, CD25 surface staining, Biological Example 2; assay type: cell-based; conditions: 48 hours, fold change over baseline; for fold induction at 0.3 µM: 0.3 μM inhibitor; for fold induction at 1 µM: 1 μM inhibitor; for fold induction at 3 µM: 3 μM inhibitor
[2] = tested on: primary human total T-cells; assay: T-cell activation, IL-2 secretion, Biological Example 2; assay type: cell-based; conditions: 48 hours, fold change over baseline; for fold induction at 0.3 µM: 0.3 μM inhibitor; for fold induction at 1 µM: 1 μM inhibitor; for fold induction at 3 µM: 3 μM inhibitor
[3] = 0.125 nM Cbl-b final concentration (Low), read-out: Cbl-b activity IC50 (Low)
[4] = anti-CD3 and anti-CD28 co-stimulation
[5] = anti-CD3 and anti-CD28 co-stimulation, read-out: CD25 staining CD3/CD28 1 μM
[6] = anti-CD3 stimulation alone, read-out: CD25 staining CD3 1 μM
[7] = anti-CD3 and anti-CD28 co-stimulation, read-out: IL-2 secretion CD3/CD28 1 μM
[8] = anti-CD3 stimulation alone, read-out: IL-2 secretion CD3 1 μM
[9] = read-out: IC50 values in the Cbl-b inhibition assay of Biological Example 1

Sequence of Cbl-b (Q13191 36-427): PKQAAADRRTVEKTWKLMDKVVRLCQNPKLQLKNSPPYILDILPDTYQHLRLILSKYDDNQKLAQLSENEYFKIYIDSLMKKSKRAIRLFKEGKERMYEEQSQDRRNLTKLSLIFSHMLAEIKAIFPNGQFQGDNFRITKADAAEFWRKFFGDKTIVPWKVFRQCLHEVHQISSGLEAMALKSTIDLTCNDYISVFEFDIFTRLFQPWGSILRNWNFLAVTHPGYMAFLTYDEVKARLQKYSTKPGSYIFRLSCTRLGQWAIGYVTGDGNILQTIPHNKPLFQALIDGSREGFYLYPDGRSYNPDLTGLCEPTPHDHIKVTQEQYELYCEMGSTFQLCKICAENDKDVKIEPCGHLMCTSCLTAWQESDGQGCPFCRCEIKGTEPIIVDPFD

Structure (SMILES)	IC50 (Cbl-b; [3]) [nM]	fold induction at 0.3 µM [1, 4]	fold induction at 1 µM [1, 5]	fold induction at 1 µM [1, 6]	fold induction at 3 µM ([1]; anti-CD3 stimulation alone)	fold induction at 0.3 µM [2, 4]	fold induction at 1 µM [2, 7]	fold induction at 1 µM [2, 8]	fold induction at 3 µM ([2]; anti-CD3 stimulation alone)	IC50 (Cbl-b; [9]) [nM]
Cn1cnnc1C[C@]1(c2cccc(N3Cc4c(cc(CN5CCC6C(C5)C6(F)F)cc4C(F)(F)F)C3=O)c2)C[C@H](C#N)C1 (some centres unmarked) [Compound 27, (1r,3r)-3-(3-(6-((7,7-difluoro-3-azabicyclo[4.1.0]heptan-3-yl)methyl)-1-oxo-4-(trifluoromethyl)isoindolin-2-yl)phenyl)-3-((4-methyl-4H-1,2,4-triazol-3-yl)methyl)cyclobutane-1-carbonitrile]	2 to 5	≤ 1.24	≤ 1.24	≤ 1	≤ 1	≤ 15	≤ 15	< 0.4	0.4 to 0.85	–
Cn1cnnc1C[C@]1(c2cccc(N3Cc4c(cc(CN5CCc6ncccc6C5)cc4C(F)(F)F)C3=O)c2)C[C@H](C#N)C1 [Compound 28, (1r,3r)-3-(3-(6-((7,8-dihydro-1,6-naphthyridin-6(5H)-yl)methyl)-1-oxo-4-(trifluoromethyl)isoindolin-2-yl)phenyl)-3-((4-methyl-4H-1,2,4-triazol-3-yl)methyl)cyclobutane-1-carbonitrile]	2 to 5	≤ 1.24	≤ 1.24	≤ 1	≤ 1	≤ 15	≤ 15	< 0.4	< 0.4	–
Cn1cnnc1C[C@]1(c2cccc(N3Cc4c(cc(CN5CCCOCC5)cc4C(F)(F)F)C3=O)c2)C[C@H](C#N)C1 [Compound 29, (1r,3r)-3-(3-(6-((1,4-oxazepan-4-yl)methyl)-1-oxo-4-(trifluoromethyl)isoindolin-2-yl)phenyl)-3-((4-methyl-4H-1,2,4-triazol-3-yl)methyl)cyclobutane-1-carbonitrile]	2 to 5	1.24 to 1.39	1.24 to 1.39	> 1.15	1 to 1.15	≤ 15	≤ 15	< 0.4	0.4 to 0.85	–
Cn1cnnc1C[C@]1(c2cccc(N3Cc4c(cc(CN5CCOCC6(CC6)C5)cc4C(F)(F)F)C3=O)c2)C[C@H](C#N)C1 [Compound 30, (1r,3r)-3-(3-(6-((5-oxa-8-azaspiro[2.6]nonan-8-yl)methyl)-1-oxo-4-(trifluoromethyl)isoindolin-2-yl)phenyl)-3-((4-methyl-4H-1,2,4-triazol-3-yl)methyl)cyclobutane-1-carbonitrile]	2 to 5	≤ 1.24	≤ 1.24	≤ 1	1 to 1.15	≤ 15	≤ 15	< 0.4	< 0.4	–
Cn1cnnc1C[C@]1(c2cccc(N3Cc4c(cc(CNC5CCC(C)(C)C5)cc4C(F)(F)F)C3=O)c2)C[C@H](C#N)C1 (some centres unmarked) [Compound 31, (1r,3r)-3-(3-(6-(((3,3-dimethylcyclopentyl)amino)methyl)-1-oxo-4-(trifluoromethyl)isoindolin-2-yl)phenyl)-3-((4-methyl-4H-1,2,4-triazol-3-yl)methyl)cyclobutane-1-carbonitrile]	< 1	> 1.39	> 1.39	> 1.15	> 1.15	> 20	> 20	> 0.85	> 0.85	< 1
CN(Cc1cc2c(c(C(F)(F)F)c1)CN(c1cccc([C@]3(Cc4nncn4C)C[C@@H](C#N)C3)c1)C2=O)C1CCC(F)(F)C1 (some centres unmarked) [Compound 32, (1r,3r)-3-(3-(6-(((3,3-difluorocyclopentyl)(methyl)amino)methyl)-1-oxo-4-(trifluoromethyl)isoindolin-2-yl)phenyl)-3-((4-methyl-4H-1,2,4-triazol-3-yl)methyl)cyclobutane-1-carbonitrile]	2 to 5	> 1.39	> 1.39	> 1.15	> 1.15	> 20	> 20	> 0.85	> 0.85	–
CC1CN(Cc2cc3c(c(C(F)(F)F)c2)CN(c2cccc([C@]4(Cc5nncn5C)C[C@@H](C#N)C4)c2)C3=O)CCCO1 (some centres unmarked) [Compound 33, (1r,3r)-3-(3-(6-((2-methyl-1,4-oxazepan-4-yl)methyl)-1-oxo-4-(trifluoromethyl)isoindolin-2-yl)phenyl)-3-((4-methyl-4H-1,2,4-triazol-3-yl)methyl)cyclobutane-1-carbonitrile]	2 to 5	≤ 1.24	≤ 1.24	≤ 1	≤ 1	≤ 15	≤ 15	0.4 to 0.85	0.4 to 0.85	–
CC1CCN(Cc2cc3c(c(C(F)(F)F)c2)CN(c2cccc([C@]4(Cc5nncn5C)C[C@@H](C#N)C4)c2)C3=O)CC(C)O1 (some centres unmarked) [Compound 34, (1r,3r)-3-(3-(6-((2,7-dimethyl-1,4-oxazepan-4-yl)methyl)-1-oxo-4-(trifluoromethyl)isoindolin-2-yl)phenyl)-3-((4-methyl-4H-1,2,4-triazol-3-yl)methyl)cyclobutane-1-carbonitrile]	2 to 5	≤ 1.24	≤ 1.24	≤ 1	≤ 1	≤ 15	≤ 15	< 0.4	0.4 to 0.85	–
CC1COCCN(Cc2cc3c(c(C(F)(F)F)c2)CN(c2cccc([C@]4(Cc5nncn5C)C[C@@H](C#N)C4)c2)C3=O)C1 (some centres unmarked) [Compound 35, (1r,3r)-3-(3-(6-((6-methyl-1,4-oxazepan-4-yl)methyl)-1-oxo-4-(trifluoromethyl)isoindolin-2-yl)phenyl)-3-((4-methyl-4H-1,2,4-triazol-3-yl)methyl)cyclobutane-1-carbonitrile]	2 to 5	1.24 to 1.39	1.24 to 1.39	1 to 1.15	1 to 1.15	15 to 20	15 to 20	0.4 to 0.85	0.4 to 0.85	–
CC1CCN(Cc2cc3c(c(C(F)(F)F)c2)CN(c2cccc([C@]4(Cc5nncn5C)C[C@@H](C#N)C4)c2)C3=O)CCO1 (some centres unmarked) [Compound 36, (1r,3r)-3-(3-(6-((7-methyl-1,4-oxazepan-4-yl)methyl)-1-oxo-4-(trifluoromethyl)isoindolin-2-yl)phenyl)-3-((4-methyl-4H-1,2,4-triazol-3-yl)methyl)cyclobutane-1-carbonitrile]	2 to 5	1.24 to 1.39	> 1.39	1 to 1.15	1 to 1.15	≤ 15	15 to 20	< 0.4	0.4 to 0.85	–
Cn1cnnc1C[C@]1(c2cccc(N3Cc4c(cc(CN5CCC6CCC(C5)O6)cc4C(F)(F)F)C3=O)c2)C[C@H](C#N)C1 (some centres unmarked) [Compound 37, (1r,3r)-3-(3-(6-((9-oxa-3-azabicyclo[4.2.1]nonan-3-yl)methyl)-1-oxo-4-(trifluoromethyl)isoindolin-2-yl)phenyl)-3-((4-methyl-4H-1,2,4-triazol-3-yl)methyl)cyclobutane-1-carbonitrile]	2 to 5	1.24 to 1.39	1.24 to 1.39	1 to 1.15	≤ 1	≤ 15	15 to 20	< 0.4	0.4 to 0.85	–
Cn1cnnc1C[C@]1(c2cccc(N3Cc4c(cc(CN5CC6COC(C6)C5)cc4C(F)(F)F)C3=O)c2)C[C@H](C#N)C1 (some centres unmarked) [Compound 38, (1r,3r)-3-(3-(6-((6-oxa-3-azabicyclo[3.2.1]octan-3-yl)methyl)-1-oxo-4-(trifluoromethyl)isoindolin-2-yl)phenyl)-3-((4-methyl-4H-1,2,4-triazol-3-yl)methyl)cyclobutane-1-carbonitrile]	5 to 20	> 1.39	> 1.39	> 1.15	> 1.15	≤ 15	15 to 20	0.4 to 0.85	> 0.85	5 to 20
